Reference: patent publication US6211170A, “Azetidinone derivatives for the treatment of HCMV infections” (Boehringer Ingelheim (Canada) Ltd., priority 1998, dated 2001)
Read-outs that look alike come from different tables or passages of the source.

Columns and labels:
HCMV NO protease = target: T1, HCMV NO protease (Human cytomegalovirus, UniProt P16753); assay: HCMV NO Protease Assay (fluorogenic substrate cleavage); type: biochemical; conditions: HCMV NO protease 100 nM, substrate 5 μM, pH 8, 2.5 h at 30°
T1 construct: HCMV NO protease
Experimental: This particular assay determines the ability of a test compound to inhibit the activity (IC50) of HCMV protease. More specifically, in the assay described herein, the inhibitory activity of the test compound is evaluated on the basis of its ability to interfere with the HCMV NO protease cleavage of a fluorogenic peptide substrate which in turn is based on the maturation cleavage site of the enzyme.
1. HCMV NO Protease Assay
Material & Methods: Fluorescence measurements were recorded on a Perkin-Elmer LS-50B spectrofluorimeter equipped with a plate reader accessory. UV measurements were recorded on a Thermomax® microplate reader from Molecular Devices Corporation, Menlo Park, Calif., USA.
HCMV NO protease was assayed with an internally quenched fluorogenic substrate based on the maturation cleavage site (Abz-[…](3-NO2)R--OH, kcat /KM =260 M^-1 s^-1). The fluorescence increase upon cleavage of the Ala-Ser amide bond was monitored using excitation λ=312 nm (slit 2.5 nm) and emission λ=415 nm (slit 5 nm). A protocol adaptable to a 96-well plate format was designed for the determination of IC50 values of inhibitors.
After this period, enzymatic hydrolysis of the fluorogenic substrate in the absence of inhibitor led to about a 30% conversion. Quenching was not required before fluorescence measurement since the total scanning time by the plate reader accessory was brief relative to the duration of the reaction. The aqueous incubation buffer contained 50 mM tris(hydroxymethyl)aminomethane.HCl pH 8, 0.5M Na2 SO4, 50 mM NaCl, 0.1 mM EDTA, 1 mM tris(2-carboxyethyl)phosphine.HCl, 3% v/v DMSO and 0.05% w/v casein. The final concentrations of HCMV NO protease (expressed in terms of total monomer concentration) and substrate were 100 nM and 5 μM respectively. IC50 values were obtained through fitting of the inhibition curve to a competitive inhibition model using SAS NLIN procedure. The mode of inhibition was determined by measurements of the initial rates (in cuvettes) at various substrate concentrations in the buffer as described above. The IC50 values listed in the following tables were obtained according to this assay.

[1] = test system: HCMV (strain AD169, ATCC VR-538); assay: Plaque Reduction Assay (PRA) in HCMV-infected Hs-68 cells; type: cell-based, human cytomegalovirus (HCMV)
Experimental: B. Plaque Reduction Assay (PRA):
Hs-68 cells (ATCC # CRL 1635) were seeded in 12-well plates at 83,000 cells/well in 1 mL of DMEM medium (Gibco Canada Inc.) supplemented with 10% fetal bovine serum (FBS, Gibco Canada Inc.). The plates were incubated for 3 days at 37° to allow the cells to reach 80-90% confluency prior to the assay.
The medium was removed from the cells by aspiration. The cells were then infected with approximately 50 PFU of HCMV (strain AD169, ATCC VR-538) in DMEM medium supplemented with 5% inactivated FBS (assay medium). (DMEM medium is commercially available and has been described by R. Dulbecco et al., Virology 1959, 8, 396.) The virus was allowed to adsorb to cells for 2 h at 37°. Following viral adsorption, the medium was removed from the wells by aspiration. The cells were then incubated with or without 1 mL of appropriate concentrations of test reagent in assay medium. Occasionally, test compounds were added 24 h post-infection. After 4 days of incubation at 37°, the medium was exchanged with fresh medium containing test compound and 4 days later the cells were fixed with 1% aqueous formaldehyde and stained with a 2% violet solution in 20% ethanol in water. Microscopic plaques were counted using a stereomicroscope. Drug effects were calculated as a percent reduction in the number of plaques in the presence of each drug concentration compared to the number observed in the absence of drug. Ganciclovir was used as a positive control in all experiments.

[2] = Cytotoxicity, tetrazolium salt (MTT) metabolic assay; type: cell-based; conditions: cytotoxic effects, read-out: TC50 (the source's name)
Experimental: Cytotoxic effects noted as TC50 in the following tables were determined according to the tetrazolium salt (MTT) metabolic assay, F. Denizot and F. Lang, J. Immun. Meth., 1986, 89, 271.

[3] = Human betaherpesvirus 5, Hs68, 192 h, plaque reduction, HCMV strain AD169, Hs-68 cells, 8 days, read-out: EC50
[4] = Human betaherpesvirus 5, AD169, Hs68, 192 h

T1 sequence (P16753 1-256): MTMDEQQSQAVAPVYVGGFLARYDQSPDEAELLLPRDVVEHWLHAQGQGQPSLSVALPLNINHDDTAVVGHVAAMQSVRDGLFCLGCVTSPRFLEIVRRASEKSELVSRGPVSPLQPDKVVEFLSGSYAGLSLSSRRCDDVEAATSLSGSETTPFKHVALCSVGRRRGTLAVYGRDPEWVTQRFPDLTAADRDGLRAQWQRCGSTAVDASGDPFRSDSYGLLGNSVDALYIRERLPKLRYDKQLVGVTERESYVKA

Structure (SMILES) | IC50 (HCMV NO protease) [µM] | EC50 [1, 3] [µM] | CC50 [2] [µM] | EC50 [1, 4] [µM]
CC[C@@H](NC(=O)N1C(=O)C[C@@H]1COc1ccccc1)c1ccccc1 [Entry 130] | 5.2 | 101 | > 250 | –
CC[C@@H](NC(=O)N1C(=O)C[C@@H]1COC(=O)Nc1ccccc1)c1ccccc1 [Entry 131] | 0.4 | – | > 32 | 20
CC[C@@H](NC(=O)N1C(=O)C[C@@H]1COC(C)=O)c1ccccc1 [Entry 132] | 3 | 210 | > 250 | –
CC[C@@H](NC(=O)N1C(=O)C[C@@H]1COC(=O)c1ccc2ccccc2c1)c1ccccc1 [Entry 133] | 0.95 | – | > 26 | 18
CC[C@@H](NC(=O)N1C(=O)C[C@@H]1COC(=O)c1cccc2ccccc12)c1ccccc1 [Entry 134] | 0.46 | – | > 13 | 9
CC[C@@H](NC(=O)N1C(=O)C[C@@H]1CN(C)Cc1ccccc1)c1ccccc1 [Entry 137] | 9.9 | > 147 | > 147 | –
CC[C@@H](NC(=O)N1C(=O)C[C@@H]1CSc1nc2ncccc2s1)c1ccccc1 [Entry 139] | 0.8 | – | > 53 | > 53
CC[C@@H](NC(=O)N1C(=O)C[C@@H]1CSc1nccn1C)c1ccccc1 [Entry 140] | 0.7 | – | > 268 | > 268
CC[C@@H](NC(=O)N1C(=O)C[C@@H]1CSc1nc2ccccc2o1)c1ccccc1 [Entry 141] | 0.8 | – | > 26 | 22
CC[C@@H](NC(=O)N1C(=O)C[C@@H]1CS(=O)(=O)c1ccccc1)c1ccccc1 [Entry 144] | 1.9 | 5 | 58 | –
CC[C@@H](NC(=O)N1C(=O)C[C@@H]1COC(=O)c1ccccc1)c1ccccc1 [Entry 145] | 0.12 | – | 250 | 250
O=C1C[C@H](CSc2ccccc2)N1C(=O)NCc1ccncc1 [Entry 201, 2-oxo-4(R)-(phenylsulfanylmethyl) azetidine-1-carboxylic acid (pyridin-4-ylmethyl)amide] | 7.9 | 75 | > 270 | –
O=C(NC[C@H]1CC(=O)N1C(=O)NCc1ccccc1)c1ccccc1 [Entry 204] | 2.6 | 120 | > 250 | –
CC[C@@H](NC(=O)N1C(=O)C[C@@H]1CN1CCCCC1)c1ccccc1 [Entry 206, 2-oxo-4(R)-(piperidin-1-ylmethyl)azetidine-1-carboxylic acid (1(R)-phenylpropyl)amide] | 3.7 | > 250 | > 250 | –
CC[C@@H](NC(=O)N1C(=O)C[C@@H]1[C@H](C)Sc1ncccn1)c1ccccc1 [Entry 208, 2-oxo-4(R)-[1(S)-(pyrimidin-2-ylsulfanyl)ethyl]-azetidine-1-carboxylic acid (1(R)-phenylpropyl)amide] | 4.5 | > 250 | > 250 | –
CC[C@@H](NC(=O)N1C(=O)C[C@@H]1[C@@H](C)Sc1ncccn1)c1ccccc1 [Entry 209, 2-oxo-4(R)-[1(R)-(pyrimidin-2-ylsulfanyl)ethyl]azetidine-1-carboxylic acid (1(R)-phenylpropyl)amide] | 3.4 | 80 | > 168 | –
C[C@@H](NC(=O)N1C(=O)C[C@@H]1CSc1ccccc1)c1ccccc1 [Entry 212] | 4.4 | 31 | > 52 | –

Structure (SMILES) | IC50 (HCMV NO protease) [µM] | EC50 [1, 3] [µM] | CC50 [2] [µM] | EC50 [1, 4] [µM]
CN(Cc1ccc(C(F)(F)F)cc1)C(=O)N1C(=O)C[C@@H]1CSc1ncccn1 [Entry 301] | 1.7 | 95 | > 250 | –
COC(=O)c1ccc(CN(C)C(=O)N2C(=O)C[C@@H]2CSc2ncccn2)cc1 [Entry 302] | 3.9 | 170 | > 250 | –
CN(Cc1ccc(C(=O)OCc2ccccc2)cc1)C(=O)N1C(=O)C[C@@H]1CSc1ncccn1 [Entry 304] | 2.5 | 120 | > 250 | –
CN(C)C(=O)c1ccc(CN(C)C(=O)N2C(=O)C[C@@H]2CSc2ncccn2)cc1 [Entry 305] | 14 | 210 | > 250 | –
COC(=O)c1ccc(CN(C)C(=O)N2C(=O)C[C@@H]2CSc2nccc(C)n2)cc1 [Entry 307] | 3.5 | 105 | > 250 | –
COC(=O)c1ccc(CN(C)C(=O)N2C(=O)C[C@@H]2CSc2nnnn2C)cc1 [Entry 309] | 1 | 130 | > 250 | –
CN(Cc1ccc(C(F)(F)F)cc1)C(=O)N1C(=O)C[C@@H]1CSc1ccncc1 [Entry 311] | 0.6 | 250 | > 250 | –
CN(Cc1ccc(C#N)cc1)C(=O)N1C(=O)C[C@@H]1CSc1ncccn1 [Entry 312] | 4.7 | 100 | > 250 | –
CN(Cc1ccc(F)cc1)C(=O)N1C(=O)C[C@@H]1CSc1ncccn1 [Entry 313] | 8.3 | 110 | > 250 | –
CN(Cc1ccc(C(F)(F)F)cc1)C(=O)N1C(=O)C[C@@H]1CSc1nccn1C [Entry 314] | 5.5 | > 250 | > 250 | –
CN(Cc1ccc(C(F)(F)F)cc1)C(=O)N1C(=O)C[C@@H]1CSc1nc2ncccc2s1 [Entry 316] | 1.6 | 14 | > 18 | –
CN(Cc1ccc2c(c1)OCO2)C(=O)N1C(=O)C[C@@H]1CSc1ncccn1 [Entry 317] | 9 | 140 | > 249 | –
CN(Cc1ccccc1)C(=O)N1C(=O)C[C@@H]1CSc1ncccn1 [Entry 318] | 10 | 150 | > 150 | –
CN(Cc1ccc(C(F)(F)F)cc1)C(=O)N1C(=O)C[C@@H]1CSc1nc2ccccc2o1 [Entry 319] | 1.7 | 160 | > 250 | –
CN(Cc1ccc(C(F)(F)F)cc1)C(=O)N1C(=O)C[C@@H]1CSc1nnnn1C [Entry 320] | 0.47 | 69 | > 250 | –
O=C1C[C@H](CSc2ncccn2)N1C(=O)N1CCC[C@@H]1c1ccccc1 [Entry 403, 1-(2(R)-phenyl-pyrrolidine-1-carbonyl)-4-(pyrimidin-2-ylsulfanylmethyl)azetidin-2-one] | 14 | 95 | > 250 | –
